{
  "source": "paper PMC10578352",
  "about": "“Identification of a Protein Arginine Methyltransferase 7 (PRMT7)/Protein Arginine Methyltransferase 9 (PRMT9) Inhibitor” (Journal of Medicinal Chemistry, 2023)",
  "type_in_all_cases": "biochemical",
  "key": {"[1]": {"target": "T1, SET7/9/KMT7 (Homo sapiens, UniProt Q8WTS6)", "T1 construct": "the human recombinant SET7/9 (residues 2–366, C-terminus); GST (N); His (C); purchased Reaction Biology Corporation", "T1 sequence (Q8WTS6 2-366)": "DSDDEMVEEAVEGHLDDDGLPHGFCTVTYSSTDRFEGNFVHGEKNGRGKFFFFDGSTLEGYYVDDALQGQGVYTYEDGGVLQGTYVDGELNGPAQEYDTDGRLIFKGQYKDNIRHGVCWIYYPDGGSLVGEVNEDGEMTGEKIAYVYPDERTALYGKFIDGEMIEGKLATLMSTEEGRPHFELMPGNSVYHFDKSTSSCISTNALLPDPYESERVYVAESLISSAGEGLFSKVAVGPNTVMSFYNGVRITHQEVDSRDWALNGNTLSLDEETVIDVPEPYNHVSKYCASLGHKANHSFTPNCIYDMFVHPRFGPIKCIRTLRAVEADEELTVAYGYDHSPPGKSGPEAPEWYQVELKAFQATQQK", "assay": "HotSpot KMT activity assay, SET7/9", "details": "read-out: % SET7/9 residual activity", "excerpt": "(§1) ; MW = 35.4 kDa; Genbank Accession # NM_018489), or the human recombinant EZH2-containing five-member polycomb repressive complex 2 (including EZH2 residues 2–746, AEBP2 2–517, EED 2–441, RbAp48 2–425, SUZ12 2–739; all full-length; with N-terminal Flag-tag on EED and N-terminal His-tag on all others; MW = 333.8 kDa; Genbank Accession # NM_001203247, NM_001114176, NM_003797, NM_005610, NM_015355), or the human recombinant G9a (residues 913–1193, C-terminus; with an N-terminal His-tag; MW = 34.6 kDa; Genbank Accession # NM_006709.3), or the human recombinant MLL1 complex (including MLL1 residues 3745–3969, C-terminus, WDR5 22–334, C-terminus, RbBP5 1–538, C-terminus, ASH2L 2–534, C-terminus, DPY-30 1–99, C-terminus; N-terminal His-tag on all subunits; MW = 212.0 kDa; Genbank Accession # NM_005933, NM_017588, NM_005057, NM_001105214, NM_0325742), or the human recombinant SET7/9 (residues 2–366, C-terminus; with a N-terminal GST-tag and a C-terminal His-tag; MW = 68.5 kDa; Genbank Accession # NM_030648), or the human recombinant SMYD3 (residues 2–428, C-terminus; C-terminal His-tag; MW = 50.1 kDa; Genbank Accession # NM_001167740), or the human recombinant SUV39H2 (residues 46–410, C-terminus; N-terminal fusion protein with a C-terminal His-tag; MW = 98.8 kDa; GenBank Accession No. NM_001193424), or the human recombinant DOT1L (residues 1–416; N-terminal GST-tag; MW = 80.0 kDa; Genbank Accession # NM_032482) was added to a solution of the proper substrate (oligo nucleosomes for ASH1L, MLL1 complex, and DOT1L, final concentration 0.05 mg/mL; core histone for EZH2 complex and SET7/9, final concentration 0.05 mg/mL; histone H3 for SUV39H2, final concentration 5 μM; histone H3 1–21 for G9a, final concentration 2.5 μM) in freshly prepared reaction buffer (50 mM Tris-HCl (pH 8.5), 5 mM MgCl2, 50 mM NaCl, 1 mM DTT, 1 mM PMSF, 1% DMSO) and gently mixed. […] After incubation for 60 min at 30 °C, the reaction mixture was delivered to filter paper for detection (as assessed by scintillation). […] Values obtained for each compound are mean ± SD determined for two separate experiments."}, "[2]": {"target": "T2, ASH1L/KMT2H (Homo sapiens, UniProt Q9NR48)", "T2 construct": "the human recombinant ASH1L (residues 2046–2330, with an N-terminal His-tag); His (N); purchased Reaction Biology Corporation", "assay": "HotSpot KMT activity assay, ASH1L", "details": "read-out: % ASH1L residual activity", "excerpt": "as §1"}, "[3]": {"target": "T3, SUV39H2/KMT1B (Homo sapiens, UniProt Q9H5I1)", "T3 construct": "the human recombinant SUV39H2 (residues 46–410, C-terminus); His (C); purchased Reaction Biology Corporation", "T3 sequence (Q9H5I1 46-410)": "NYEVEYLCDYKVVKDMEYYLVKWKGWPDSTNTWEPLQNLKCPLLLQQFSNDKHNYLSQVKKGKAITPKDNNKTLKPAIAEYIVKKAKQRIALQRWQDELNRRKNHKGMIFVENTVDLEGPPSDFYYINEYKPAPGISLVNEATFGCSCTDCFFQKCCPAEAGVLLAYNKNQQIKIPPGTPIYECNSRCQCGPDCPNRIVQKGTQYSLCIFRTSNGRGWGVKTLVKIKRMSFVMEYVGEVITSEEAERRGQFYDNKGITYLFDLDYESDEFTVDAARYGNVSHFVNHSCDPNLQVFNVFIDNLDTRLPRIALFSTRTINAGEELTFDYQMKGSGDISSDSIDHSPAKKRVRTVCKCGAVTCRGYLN", "assay": "HotSpot KMT activity assay, SUV39H2", "details": "read-out: % SUV39H2 residual activity", "excerpt": "as §1"}},
  "data": [
    {"compound": "COC(=O)c1cc(O)c2cc(NC(=O)NCCCNC(=N)NC[C@H]3O[C@@H](n4cnc5c(N)ncnc54)[C@H](O)[C@@H]3O)cc(C(F)(F)F)c2c1", "note": "[1j, Methyl 6-(3-(3-(3-(((2R,3S,4R,5R)-5-(6-Amino-9H-purin-9-yl)-3,4-dihydroxytetrahydrofuran-2-yl)methyl)guanidino)propyl)ureido)-4-hydroxy-8-(trifluoromethyl)-2-naphthoate]", "values": [
      {"measurement": "remaining activity at 10 µM", "setting": "[1]; 10 μM", "result": "86.3 ± 1.4", "unit": "%"},
      {"measurement": "remaining activity at 100 µM", "setting": "[1]; 100 μM", "result": "53.33 ± 0.38", "unit": "%"},
      {"measurement": "remaining activity at 10 µM", "setting": "[2]; 10 μM", "result": "95.4 ± 1.49", "unit": "%"},
      {"measurement": "remaining activity at 100 µM", "setting": "[2]; 100 μM", "result": "109 ± 3.8", "unit": "%"},
      {"measurement": "remaining activity at 10 µM", "setting": "[3]; 10 μM", "result": "89.7 ± 1.08", "unit": "%"},
      {"measurement": "remaining activity at 100 µM", "setting": "[3]; 100 μM", "result": "83.76 ± 0.22", "unit": "%"}
    ]}
  ]
}
